# Test results published in patent US6660774B2, “Use of (+)-tramadol, O-demethyltramadol or (+)-O-demethyl-tramadol, O-desmethyl-N-mono-desmethyl-tramadol or (+)- O-desmethyl-N-mono-desmethyltramadol” (Gruenethal GmbH, priority 1999, dated 2003).
# What was measured:
# [1] = tested on: virgin, female Sprague-Dawley rats (bladder function); experiment: Cystometric testing on conscious, virgin rats; type: in vivo, rat
# [2] = analgesic effects less pronounced on intravenous than on intracerebroventricular administration; cited from earlier work
# [3] = 0.1 mg/kg i.v., Diff.: change relative to the initial value
# [4] = 0.1 mg/kg i.v., h: after administration, at maximum action
# [5] = 0.1 mg/kg i.v., v: before administration (initial value)
# [6] = 0.3 mg/kg i.v., Diff.: change relative to the initial value
# [7] = 0.3 mg/kg i.v., h: after administration, at maximum action
# [8] = 0.3 mg/kg i.v., v: before administration (initial value)
# [9] = 0.5 mg/kg i.v., Diff.: change relative to the initial value
# [10] = 0.5 mg/kg i.v., h: after administration, at maximum action
# [11] = 0.5 mg/kg i.v., v: before administration (initial value)
# [12] = 5.0 mg/kg i.v., Diff.: change relative to the initial value
# [13] = 5.0 mg/kg i.v., h: after administration, at maximum action
# [14] = 5.0 mg/kg i.v., v: before administration (initial value)
compound,measurement,setting,value
"COc1cccc([C@@]2(O)CCCC[C@@H]2CN(C)C)c1 [(+)-Tramadol, (+)-tramadol]",Basal pressure,[1]; [3],Diff.: −4%
same,Bladder capacity,[1]; [3],Diff.: +18%
same,Inter-contraction interval,[1]; [3],Diff.: +33%
same,Micturition pressure,[1]; [3],Diff.: −20%
same,Micturition volume,[1]; [3],Diff.: +7%
same,Residual volume,[1]; [3],Diff.: 44%
same,Threshold pressure,[1]; [3],Diff.: +48%
same,Basal pressure,[1]; [4],h: 3.85 ± 0.46 cm H2O
same,Bladder capacity,[1]; [4],h: 1.07 ± 0.13 ml
same,Inter-contraction interval,[1]; [4],h: 7.13 ± 0.85 min
same,Micturition pressure,[1]; [4],h: 55 ± 8 cm H2O
same,Micturition volume,[1]; [4],h: 0.80 ± 0.09 ml
same,Residual volume,[1]; [4],h: 0.23 ± 0.07 ml
same,Threshold pressure,[1]; [4],h: 11.63 ± 1.05 cm H2O
same,Basal pressure,[1]; [5],v: 4.01 ± 0.57 cm H2O
same,Bladder capacity,[1]; [5],v: 0.91 ± 0.11 ml
same,Inter-contraction interval,[1]; [5],v: 5.35 ± 0.63 min
same,Micturition pressure,[1]; [5],v: 69 ± 11 cm H2O
same,Micturition volume,[1]; [5],v: 0.75 ± 0.12 ml
same,Residual volume,[1]; [5],v: 0.16 ± 0.01 ml
same,Threshold pressure,[1]; [5],v: 7.87 ± 1.51 cm H2O
same,Basal pressure,[1]; [6],Diff.: +10%
same,Bladder capacity,[1]; [6],Diff.: +39%
same,Inter-contraction interval,[1]; [6],Diff.: +19%
same,Micturition pressure,[1]; [6],Diff.: −15%
same,Micturition volume,[1]; [6],Diff.: +13%
same,Residual volume,[1]; [6],Diff.: +167%
same,Threshold pressure,[1]; [6],Diff.: +95%
same,Basal pressure,[1]; [7],h: 4.95 ± 0.19 cm H2O
same,Bladder capacity,[1]; [7],h: 1.38 ± 0.14 ml
same,Inter-contraction interval,[1]; [7],h: 7.21 ± 0.72 min
same,Micturition pressure,[1]; [7],h: 60 ± 5 cm H2O
same,Micturition volume,[1]; [7],h: 0.97 ± 0.13 ml
same,Residual volume,[1]; [7],h: 0.40 ± 0.04 ml
same,Threshold pressure,[1]; [7],h: 16.01 ± 1.63 cm H2O
same,Basal pressure,[1]; [8],v: 4.50 ± 0.29 cm H2O
same,Bladder capacity,[1]; [8],v: 0.99 ± 0.08 ml
same,Inter-contraction interval,[1]; [8],v: 6.06 ± 0.49 min
same,Micturition pressure,[1]; [8],v: 71 ± 4 cm H2O
same,Micturition volume,[1]; [8],v: 0.86 ± 0.07 ml
same,Residual volume,[1]; [8],v: 0.15 ± 0.01 ml
same,Threshold pressure,[1]; [8],v: 8.21 ± 0.42 cm H2O
same,Basal pressure,[1]; [9],Diff.: +13%
same,Bladder capacity,[1]; [9],Diff.: +18%
same,Inter-contraction interval,[1]; [9],Diff.: +21%
same,Micturition pressure,[1]; [9],Diff.: −22%
same,Micturition volume,[1]; [9],Diff.: +22%
same,Residual volume,[1]; [9],Diff.: −14%
same,Threshold pressure,[1]; [9],Diff.: +91%
same,Basal pressure,[1]; [10],h: 4.70 ± 1.14 cm H2O
same,Bladder capacity,[1]; [10],h: 1.43 ± 0.11 ml
same,Micturition pressure,[1]; [10],h: 57 ± 10 cm H2O
same,Micturition volume,[1]; [10],h: 1.31 ± 0.12 ml
same,Residual volume,[1]; [10],h: 0.12 ± 0.002 ml
same,Threshold pressure,[1]; [10],h: 15.0 ± 2.58 cm H2O
same,Basal pressure,[1]; [11],v: 4.16 ± 0.62 cm H2O
same,Bladder capacity,[1]; [11],v: 1.21 ± 0.06 ml
same,Micturition pressure,[1]; [11],v: 73 ± 12 cm H2O
same,Micturition volume,[1]; [11],v: 1.07 ± 0.06 ml
same,Residual volume,[1]; [11],v: 0.14 ± 0.03 ml
same,Threshold pressure,[1]; [11],v: 7.85 ± 1.04 cm H2O
same,effect on bladder parameters (in words),[1]; 5 mg/kg i.v.,has an effect
same,Basal pressure,[1]; [12],Diff.: +53%
same,Bladder capacity,[1]; [12],Diff.: −2%
same,Inter-contraction interval,[1]; [12],Diff.: +7%
same,Micturition pressure,[1]; [12],Diff.: −15%
same,Micturition volume,[1]; [12],Diff.: +46%
same,Residual volume,[1]; [12],Diff.: −95%
same,Threshold pressure,[1]; [12],Diff.: +140%
same,Basal pressure,[1]; [13],h: 6.46 ± 1.13 cm H2O
same,Bladder capacity,[1]; [13],h: 0.90 ± 0.09 ml
same,Micturition pressure,[1]; [13],h: 51 ± 7 cm H2O
same,Micturition volume,[1]; [13],h: 1.18 ± 0.12 ml
same,Residual volume,[1]; [13],h: 0.006 ± 0.003 ml
same,Threshold pressure,[1]; [13],h: 19.20 ± 3.02 cm H2O
same,Basal pressure,[1]; [14],v: 4.23 ± 0.35 cm H2O
same,Bladder capacity,[1]; [14],v: 0.92 ± 0.08 ml
same,Micturition pressure,[1]; [14],v: 60 ± 4 cm H2O
same,Micturition volume,[1]; [14],v: 0.81 ± 0.07 ml
same,Residual volume,[1]; [14],v: 0.11 ± 0.02 ml
same,Threshold pressure,[1]; [14],v: 8.0 ± 1.10 cm H2O
same,bladder capacity (in words),"[1]; rat, in vivo",distinct increase
"CNCC1CCCCC1(O)c1cccc(O)c1 (stereo not drawn) [M5, O-desmethyl-N-mono-desmethyltramadol]",penetration of the blood-brain barrier (in words),[2],only a limited extent
CN(C)CC1CCCCC1(O)c1cccc(O)c1 (stereo not drawn) [O-demethyltramadol],effect on bladder function (in words),[1]; even at low concentrations,clear effect
(+)-O-desmethyltramadol [(+)-M1],Basal pressure,[1]; [3],Diff.: +7%
same,Bladder capacity,[1]; [3],Diff.: +31%
same,Inter-contraction interval,[1]; [3],Diff.: +31%
same,Micturition pressure,[1]; [3],Diff.: −22%
same,Micturition volume,[1]; [3],Diff.: +48%
same,Residual volume,[1]; [3],Diff.: −73%
same,Threshold pressure,[1]; [3],Diff.: +32%
same,Basal pressure,[1]; [4],h: 3.87 ± 0.43 cm H2O
same,Bladder capacity,[1]; [4],h: 0.98 ± 0.06 ml
same,Inter-contraction interval,[1]; [4],5.51 ± 0.52 min
same,Micturition pressure,[1]; [4],h: 70 ± 11 cm H2O
same,Micturition volume,[1]; [4],h: 0.95 ± 0.09 ml
same,Residual volume,[1]; [4],h: 0.03 ± 0.02 ml
same,Threshold pressure,[1]; [4],h: 8.07 ± 0.97 cm H2O
same,Basal pressure,[1]; [5],v: 3.62 ± 0.24 cm H2O
same,Bladder capacity,[1]; [5],v: 0.75 ± 0.08 ml
same,Inter-contraction interval,[1]; [5],4.20 ± 0.55 min
same,Micturition pressure,[1]; [5],v: 90 ± 12 cm H2O
same,Micturition volume,[1]; [5],v: 0.64 ± 0.10 ml
same,Residual volume,[1]; [5],v: 0.11 ± 0.02 ml
same,Threshold pressure,[1]; [5],v: 6.12 ± 0.51 cm H2O
same,Basal pressure,[1]; [9],Diff.: +25%
same,Bladder capacity,[1]; [9],Diff.: +44%
same,Inter-contraction interval,[1]; [9],Diff.: +46%
same,Micturition pressure,[1]; [9],Diff.: −30%
same,Micturition volume,[1]; [9],Diff.: +51%
same,Residual volume,[1]; [9],Diff.: −33%
same,Threshold pressure,[1]; [9],Diff.: +106%
same,Basal pressure,[1]; [10],h: 4.90 ± 0.55 cm H2O
same,Bladder capacity,[1]; [10],h: 1.35 ± 0.11 ml
same,Inter-contraction interval,[1]; [10],7.63 ± 0.60 min
same,Micturition pressure,[1]; [10],h: 66 ± 10 cm H2O
same,Micturition volume,[1]; [10],h: 1.28 ± 0.09 ml
same,Residual volume,[1]; [10],h: 0.06 ± 0.02 ml
same,Threshold pressure,[1]; [10],h: 15.34 ± 1.16 cm H2O
same,Basal pressure,[1]; [11],v: 3.91 ± 0.31 cm H2O
same,Bladder capacity,[1]; [11],v: 0.94 ± 0.08 ml
same,Inter-contraction interval,[1]; [11],5.23 ± 0.45 min
same,Micturition pressure,[1]; [11],v: 94 ± 10 cm H2O
same,Micturition volume,[1]; [11],v: 0.85 ± 0.08 ml
same,Residual volume,[1]; [11],v: 0.09 ± 0.02 ml
same,Threshold pressure,[1]; [11],v: 7.44 ± 1.10 cm H2O
same,bladder capacity (in words),[1]; 0.1 and 0.5 mg/kg i.v.,increased
same,interval between micturition (in words),[1]; 0.1 and 0.5 mg/kg i.v.,extended
same,threshold pressure (in words),"[1]; 0.1 and, in particular, 0.5 mg/kg i.v.",distinct rise
